# In ChEMBL document CHEMBL2177093, “The design and identification of brain penetrant inhibitors of phosphoinositide 3-kinase α” (J Med Chem, 2012):
# Activity calls are given as the source filed them. The rule behind the calls is not given here.
# How the values were obtained:
# [1] = Ratio of drug level in brain to plasma in CD-1 mouse at 20 mg/kg, po measured at 1 hr; type: ADME, organism-based; design: dose 20 mg/kg, route oral; conditions: read-out: BPR
# in vitro = conditions: human, liver microsomes
# [2] = Clearance in rat; type: ADME, organism-based; conditions: in vivo
# PC-3 = assay: Antiproliferative activity against human PC3 cells incubated for 3 days; type: functional, cell-based; conditions: PC-3, 72 h
# mouse Bcrp1 = assay: in vitro; conditions: dog
# [3] = biological target: Phosphatidylinositol 4,5-bisphosphate 3-kinase catalytic subunit alpha isoform (Homo sapiens, UniProt P42336); assay: Inhibition of PI3Kalpha assessed as reduction in PIP3 formation after 30 mins by fluorescence polarization assay
# Mus musculus [4] = species on record: Mus musculus; conditions: NCr, U-87MG ATCC, 3 mg/kg
# [5] = Ratio of drug level in brain to plasma in CD-1 mouse at 50 mg/kg, po at 6 hrs; type: ADME, organism-based; design: dose 50 mg/kg, route oral; conditions: read-out: BPR
# SF-539 = assay: Cytotoxicity against human SF539 cells incubated for 4 days; type: functional, cell-based; conditions: SF-539, 96 h
# [6] = Cytotoxicity against human U87MG cells incubated for 4 days; type: functional, cell-based, U-87MG ATCC; conditions: U-87 MG, 96 h
# [7] = Oral bioavailability in CD-1 mouse; type: ADME, organism-based; conditions: in vivo
# [8] = Cytotoxicity against human A172 cells incubated for 4 days; type: functional, cell-based; conditions: A 172, 96 h
# Mus musculus [9] = assay: Toxicity in PTEN deficient human U87MG cells xenografted in NCr nude mouse assessed as loss in body weight at 50 mg/kg, po qd for 24 days; type: organism-based, U-87MG ATCC; design: dose 50 mg/kg, route oral; conditions: in vivo, 576 h
# [10] = Drug level in CD-1 mouse brain at 50 mg/kg, po administered as single dose measured after 1 hr post dose; type: ADME, organism-based; design: dose 50 mg/kg, route oral; conditions: read-out: Drug uptake
# [11] = Clearance in po dosed CD-1 mouse; type: ADME, organism-based; conditions: in vivo
# [12] = Toxicity in PTEN deficient human U87MG cells xenografted in NCr nude mouse at dosed orally once daily for 24 days; type: organism-based, U-87MG ATCC; conditions: in vivo, po
# [13] = Cytotoxicity against human LN229 cells incubated for 4 days; type: functional, cell-based; conditions: LN-229, 96 h
# Mus musculus [14] = species on record: Mus musculus; conditions: NCr, U-87MG ATCC, 3 mg/kg; remark: listed apart in the source
# [15] = Cytotoxicity against human Hs683 cells incubated for 4 days; type: functional, cell-based; conditions: Hs 683, 96 h
# M059J = assay: Cytotoxicity against human M059J cells incubated for 4 days; type: functional, cell-based; conditions: 96 h
# [16] = biological target: Phosphatidylinositol 4-phosphate 3-kinase C2 domain-containing subunit beta (Homo sapiens) (UniProt O00750); assay: Inhibition of PI3KC2beta at 1 uM
# Mus musculus [17] = species on record: Mus musculus; conditions: NCr, U-87MG ATCC, 40 mg/kg
# SF-268 = assay: Cytotoxicity against human SF268 cells incubated for 4 days; type: functional, cell-based; conditions: SF-268, 96 h
# Mus musculus [18] = assay: Toxicity in PTEN deficient human U87MG cells xenografted in NCr nude mouse assessed as loss in body weight at 30 mg/kg, po qd for 24 days; type: organism-based, U-87MG ATCC; design: dose 30 mg/kg, route oral; conditions: in vivo, 576 h
# [19] = Drug uptake in healthy mouse brain at 50 mg/kg after 1 hr; type: ADME, organism-based; design: dose 50 mg/kg; conditions: read-out: Drug uptake
# U-87MG ATCC = assay: Antitumor activity against PTEN deficient human U87MG cells xenografted in NCr nude mouse assessed as inhibition of tumor growth at 3 to 14 mg/kg, po qd for 24 days; type: functional, organism-based
# [20] = Half life in po dosed CD-1 mouse; type: ADME, organism-based; conditions: in vivo
# [21] = Ratio of drug level in brain to plasma in CD-1 mouse at 50 mg/kg, po at 1 hr; type: ADME, organism-based; design: dose 50 mg/kg, route oral; conditions: read-out: BPR
# Mus musculus [22] = species on record: Mus musculus; conditions: NCr, U-87MG ATCC, 40 mg/kg; remark: listed apart in the source
# Mus musculus [23] = assay: Inhibition of PI3K signaling in CD-1 mouse assessed as reduction in pAKT level at 50 mg/kg, po administered as single dose measured after 6 hrs post dose by immunoblotting method; type: functional; conditions: CD-1, 6 h
# Mus musculus [24] = species on record: Mus musculus; conditions: NCr, U-87MG ATCC, 10 mg/kg
# [25] = Plasma protein binding in CD-1 mouse; type: ADME, cell-free; conditions: read-out: PPB (converted)
# [26] = Drug uptake in NCr nude mouse brain xenografted with PTEN deficient human U87MG cells at 40 mg/kg after 1 hr; type: ADME, organism-based, U-87MG ATCC; design: dose 40 mg/kg; conditions: read-out: Drug uptake
# Mus musculus [27] = assay: Inhibition of PI3K signaling in CD-1 mouse assessed as reduction in pAKT level at 50 mg/kg, po administered as single dose measured after 1 hr post dose by immunoblotting method; type: functional; conditions: CD-1, 1 h
# [28] = Drug level in CD-1 mouse brain at 50 mg/kg, po administered as single dose measured after 6 hrs post dose; type: ADME, organism-based; design: dose 50 mg/kg, route oral; conditions: read-out: Drug uptake
# [29] = Antitumor activity in PTEN deficient human U87MG cells xenografted in NCr nude mouse assessed as loss in body weight at 40 mg/kg, po after 24 days; type: functional, U-87MG ATCC
# Mus musculus [30] = species on record: Mus musculus; conditions: NCr, U-87MG ATCC, 10 mg/kg; remark: listed apart in the source
# [31] = Ratio of drug level in brain to plasma in CD-1 mouse at 15 mg/kg, po at 4 hrs; type: ADME, organism-based; design: dose 15 mg/kg, route oral; conditions: read-out: BPR
# [32] = Ratio of drug level in brain to plasma in CD-1 mouse at 15 mg/kg, po measured at 0.5 hrs; type: ADME, organism-based; design: dose 15 mg/kg, route oral; conditions: read-out: BPR
# [33] = biological target: Serine/threonine-protein kinase mTOR (Homo sapiens, UniProt P42345); assay: Inhibition of human recombinant mTOR (1360 to 2549 amino acids) assessed as reduction in phosphorylation of (GFP)-4-EBP1 after 30 mins by FRET assay; conditions: read-out: Ki(app)
# [34] = Ratio of drug level in brain to plasma in CD-1 mouse at 15 mg/kg, po at 0.5 hr; type: ADME, organism-based; design: dose 15 mg/kg, route oral; conditions: read-out: BPR
# Chain of Phosphatidylinositol 4,5-bisphosphate 3-kinase catalytic subunit alpha isoform (P42336 whole entry, canonical isoform): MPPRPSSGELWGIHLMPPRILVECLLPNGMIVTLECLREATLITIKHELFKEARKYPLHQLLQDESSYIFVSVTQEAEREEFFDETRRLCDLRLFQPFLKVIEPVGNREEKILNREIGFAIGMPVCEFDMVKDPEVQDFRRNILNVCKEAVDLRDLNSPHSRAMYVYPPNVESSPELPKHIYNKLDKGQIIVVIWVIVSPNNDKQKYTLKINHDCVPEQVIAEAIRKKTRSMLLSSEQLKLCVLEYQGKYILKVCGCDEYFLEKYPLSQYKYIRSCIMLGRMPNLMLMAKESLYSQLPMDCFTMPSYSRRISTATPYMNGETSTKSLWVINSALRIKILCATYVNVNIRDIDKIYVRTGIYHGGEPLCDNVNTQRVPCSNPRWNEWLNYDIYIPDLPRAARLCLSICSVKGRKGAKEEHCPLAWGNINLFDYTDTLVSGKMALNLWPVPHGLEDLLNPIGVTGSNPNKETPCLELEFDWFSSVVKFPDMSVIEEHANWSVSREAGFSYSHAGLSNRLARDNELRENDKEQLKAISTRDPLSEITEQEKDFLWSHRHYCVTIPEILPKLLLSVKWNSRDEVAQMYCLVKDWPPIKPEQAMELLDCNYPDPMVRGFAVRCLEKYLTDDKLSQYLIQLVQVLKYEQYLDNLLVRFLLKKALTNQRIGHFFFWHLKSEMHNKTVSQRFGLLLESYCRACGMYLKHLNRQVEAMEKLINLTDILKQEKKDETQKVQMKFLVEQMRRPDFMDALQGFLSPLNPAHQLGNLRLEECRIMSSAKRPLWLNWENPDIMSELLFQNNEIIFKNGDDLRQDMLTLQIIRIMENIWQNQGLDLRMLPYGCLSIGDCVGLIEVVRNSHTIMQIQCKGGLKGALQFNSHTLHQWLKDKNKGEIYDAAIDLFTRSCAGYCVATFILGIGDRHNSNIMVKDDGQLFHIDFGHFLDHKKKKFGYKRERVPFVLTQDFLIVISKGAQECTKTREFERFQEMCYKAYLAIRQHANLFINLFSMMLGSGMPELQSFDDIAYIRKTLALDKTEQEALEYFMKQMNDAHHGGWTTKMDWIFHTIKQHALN
# Chain of Phosphatidylinositol 4-phosphate 3-kinase C2 domain-containing subunit beta (Homo sapiens) (O00750 whole entry, the tested form may be a part): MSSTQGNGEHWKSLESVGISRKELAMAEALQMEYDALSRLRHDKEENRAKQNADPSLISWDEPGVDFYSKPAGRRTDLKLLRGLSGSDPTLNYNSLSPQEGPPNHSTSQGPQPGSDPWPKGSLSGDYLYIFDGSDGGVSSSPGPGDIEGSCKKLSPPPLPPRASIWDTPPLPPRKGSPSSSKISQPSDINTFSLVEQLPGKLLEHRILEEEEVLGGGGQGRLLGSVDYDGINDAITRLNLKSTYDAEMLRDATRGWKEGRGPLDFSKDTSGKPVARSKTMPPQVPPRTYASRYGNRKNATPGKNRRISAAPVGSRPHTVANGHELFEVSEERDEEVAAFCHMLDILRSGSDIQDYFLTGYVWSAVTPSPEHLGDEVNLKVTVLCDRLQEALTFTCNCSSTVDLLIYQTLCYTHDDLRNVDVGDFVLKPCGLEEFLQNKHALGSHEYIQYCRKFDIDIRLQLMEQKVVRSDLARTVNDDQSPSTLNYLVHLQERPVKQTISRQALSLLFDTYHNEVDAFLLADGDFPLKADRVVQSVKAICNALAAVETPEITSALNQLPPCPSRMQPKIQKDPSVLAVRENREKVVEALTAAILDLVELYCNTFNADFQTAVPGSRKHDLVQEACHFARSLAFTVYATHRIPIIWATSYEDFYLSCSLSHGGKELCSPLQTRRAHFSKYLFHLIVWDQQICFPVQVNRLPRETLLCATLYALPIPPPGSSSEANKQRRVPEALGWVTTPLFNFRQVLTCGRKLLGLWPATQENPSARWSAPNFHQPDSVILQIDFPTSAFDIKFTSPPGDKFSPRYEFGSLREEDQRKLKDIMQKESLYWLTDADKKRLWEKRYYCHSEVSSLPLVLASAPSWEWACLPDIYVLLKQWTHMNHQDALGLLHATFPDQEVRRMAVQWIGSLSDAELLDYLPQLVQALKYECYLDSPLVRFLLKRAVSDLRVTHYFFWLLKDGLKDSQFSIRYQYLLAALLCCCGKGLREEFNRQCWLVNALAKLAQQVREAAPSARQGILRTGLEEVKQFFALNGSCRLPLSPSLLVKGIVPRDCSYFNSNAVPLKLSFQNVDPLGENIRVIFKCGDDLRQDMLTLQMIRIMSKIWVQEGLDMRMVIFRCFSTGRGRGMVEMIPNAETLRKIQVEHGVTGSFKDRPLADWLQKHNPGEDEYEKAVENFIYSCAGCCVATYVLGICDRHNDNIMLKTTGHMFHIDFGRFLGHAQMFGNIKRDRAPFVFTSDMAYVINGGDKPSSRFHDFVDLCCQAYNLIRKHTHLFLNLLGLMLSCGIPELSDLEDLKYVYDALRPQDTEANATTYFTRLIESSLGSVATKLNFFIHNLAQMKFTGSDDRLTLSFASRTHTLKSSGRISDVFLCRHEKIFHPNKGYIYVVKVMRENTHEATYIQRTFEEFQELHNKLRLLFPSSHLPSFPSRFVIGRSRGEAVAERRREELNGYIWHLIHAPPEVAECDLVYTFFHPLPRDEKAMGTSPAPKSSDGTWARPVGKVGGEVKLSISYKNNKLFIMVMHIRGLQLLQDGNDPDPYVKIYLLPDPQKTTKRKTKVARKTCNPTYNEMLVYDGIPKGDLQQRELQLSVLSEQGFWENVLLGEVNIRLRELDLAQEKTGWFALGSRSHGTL
compound,measurement,setting,value
Cc1c(CN2CCN(C(=O)[C@H](C)O)CC2)sc2c(N3CCOCC3)nc(-c3cnc(N)nc3)nc12 [APITOLISIB],Kp at 1 h,[1],< 0.1
same,CLhep predicted,in vitro,3 mL/min/kg
same,clearance,[2],3 mL/min/kg
Cc1csc2c(N3CCOCC3)nc(-c3cnc(N)nc3)nc12,EC50,PC-3,364 nM
same,"efflux ratio at 2 h, 5 µM",mouse Bcrp1,1
same,CLhep predicted,in vitro,11 mL/min/kg
same,clearance,[2],238 mL/min/kg
same,IC50,[3],9 nM
COC1(c2sc3c(N4CCOCC4)nc(-c4cnc(N)nc4)nc3c2C)COC1,inhibition,Mus musculus [4],Active
same,Kp at 6 h,[5],1
same,EC50,SF-539,250 nM
same,EC50,[6],250 nM
same,bioavailability,[7],75%
same,EC50,[8],240 nM
same,Activity,Mus musculus [9],> 15%
same,concentration at 1 h,[10],3640 nM
same,CL/F,[11],32 mL/min/kg
same,MTD at 576 h,[12],40 mg/kg
same,EC50,[13],140 nM
same,inhibition,Mus musculus [14],Active
same,EC50,[15],230 nM
same,EC50,M059J,330 nM
same,inhibition,[16],77%
same,inhibition,Mus musculus [17],Active
same,EC50,SF-268,570 nM
same,Activity,Mus musculus [18],Non-toxic
same,concentration at 1 h,[19],3600 nM
same,TGI,U-87MG ATCC,Dose-dependent effect
same,half-life,[20],17 h
same,Kp at 1 h,[21],1
same,inhibition,Mus musculus [22],Active
same,inhibition in vivo at 50 mg/kg,Mus musculus [23],31%
same,inhibition,Mus musculus [24],Active
same,fraction unbound,[25],0.15
same,concentration at 1 h,[26],2200 nM
same,inhibition in vivo at 50 mg/kg,Mus musculus [27],62%
same,concentration at 6 h,[28],2310 nM
same,Activity,[29],<15%
same,inhibition,Mus musculus [30],Active
c1cc(-c2nc(N3CCOCC3)c3sccc3n2)c2cn[nH]c2c1,EC50,PC-3,3600 nM
same,"efflux ratio at 2 h, 5 µM",mouse Bcrp1,1
same,CLhep predicted,in vitro,16 mL/min/kg
same,IC50,[3],36 nM
Nc1ncc(-c2nc(N3CCOCC3)c3sc(C4CNC4)cc3n2)cn1,"efflux ratio at 2 h, 5 µM",mouse Bcrp1,22
CC(=O)N1CC(c2cc3nc(-c4cnc(N)nc4)nc(N4CCOCC4)c3s2)C1,"efflux ratio at 2 h, 5 µM",mouse Bcrp1,43
CC(C)(O)c1cc2nc(-c3cnc(N)nc3)nc(N3CCOCC3)c2s1,Kp at 4 h,[31],0.2
same,Kp at 0.5 h,[32],0.2
same,CLhep predicted,in vitro,4 mL/min/kg
same,Ki,[33],30 nM
same,Kp at 0.5 h,[34],0.3
same,half-life,[20],2.2 h
same,fraction unbound,[25],0.198
